Experimental data taken from paper PMC12586182 (Frontiers in Oncology, 2025).

Key:
Experiment in all cases: Kinase panel profiling at 1 µmol/L (mobility shift assay, Carna)
Type in all cases: biochemical
Conditions in all cases: 1 µmol/L of BTK inhibitor
[1] = target: T1, FLT3 (Homo sapiens, UniProt P36888)
T1 construct: purchased Carna Biosciences
T1 sequence (P36888 27-993): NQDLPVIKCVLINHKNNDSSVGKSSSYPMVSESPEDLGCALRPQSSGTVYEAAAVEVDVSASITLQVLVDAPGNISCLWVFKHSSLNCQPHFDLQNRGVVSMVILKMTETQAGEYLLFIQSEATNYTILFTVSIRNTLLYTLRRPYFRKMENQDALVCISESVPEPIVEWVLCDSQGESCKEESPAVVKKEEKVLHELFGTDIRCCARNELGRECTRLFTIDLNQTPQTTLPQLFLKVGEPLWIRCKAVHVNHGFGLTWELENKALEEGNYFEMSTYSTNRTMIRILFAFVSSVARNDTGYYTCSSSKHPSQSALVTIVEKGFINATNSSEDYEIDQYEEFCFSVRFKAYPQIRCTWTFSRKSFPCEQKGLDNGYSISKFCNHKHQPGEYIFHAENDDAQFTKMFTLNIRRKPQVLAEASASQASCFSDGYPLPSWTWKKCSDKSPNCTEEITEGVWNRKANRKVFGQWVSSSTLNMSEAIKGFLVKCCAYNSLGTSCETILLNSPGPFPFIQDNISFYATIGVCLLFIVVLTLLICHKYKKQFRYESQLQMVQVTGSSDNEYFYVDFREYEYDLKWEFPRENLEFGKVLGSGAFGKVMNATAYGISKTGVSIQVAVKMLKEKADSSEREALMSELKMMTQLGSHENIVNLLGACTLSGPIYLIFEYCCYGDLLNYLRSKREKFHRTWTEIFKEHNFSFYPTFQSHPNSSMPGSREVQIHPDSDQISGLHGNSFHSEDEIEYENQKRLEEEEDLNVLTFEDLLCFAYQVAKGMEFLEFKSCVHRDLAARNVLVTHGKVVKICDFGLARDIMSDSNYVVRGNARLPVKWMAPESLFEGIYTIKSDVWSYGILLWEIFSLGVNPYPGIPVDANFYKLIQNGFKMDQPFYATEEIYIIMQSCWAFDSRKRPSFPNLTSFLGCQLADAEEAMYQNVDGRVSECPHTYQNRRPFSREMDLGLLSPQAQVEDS

[2] = target: T2, KIT (Homo sapiens, UniProt P10721)
T2 construct: purchased Carna Biosciences

[3] = target: T3, ROS (Homo sapiens, UniProt P08922)
T3 construct: purchased Carna Biosciences
T3 sequence (P08922 28-2347): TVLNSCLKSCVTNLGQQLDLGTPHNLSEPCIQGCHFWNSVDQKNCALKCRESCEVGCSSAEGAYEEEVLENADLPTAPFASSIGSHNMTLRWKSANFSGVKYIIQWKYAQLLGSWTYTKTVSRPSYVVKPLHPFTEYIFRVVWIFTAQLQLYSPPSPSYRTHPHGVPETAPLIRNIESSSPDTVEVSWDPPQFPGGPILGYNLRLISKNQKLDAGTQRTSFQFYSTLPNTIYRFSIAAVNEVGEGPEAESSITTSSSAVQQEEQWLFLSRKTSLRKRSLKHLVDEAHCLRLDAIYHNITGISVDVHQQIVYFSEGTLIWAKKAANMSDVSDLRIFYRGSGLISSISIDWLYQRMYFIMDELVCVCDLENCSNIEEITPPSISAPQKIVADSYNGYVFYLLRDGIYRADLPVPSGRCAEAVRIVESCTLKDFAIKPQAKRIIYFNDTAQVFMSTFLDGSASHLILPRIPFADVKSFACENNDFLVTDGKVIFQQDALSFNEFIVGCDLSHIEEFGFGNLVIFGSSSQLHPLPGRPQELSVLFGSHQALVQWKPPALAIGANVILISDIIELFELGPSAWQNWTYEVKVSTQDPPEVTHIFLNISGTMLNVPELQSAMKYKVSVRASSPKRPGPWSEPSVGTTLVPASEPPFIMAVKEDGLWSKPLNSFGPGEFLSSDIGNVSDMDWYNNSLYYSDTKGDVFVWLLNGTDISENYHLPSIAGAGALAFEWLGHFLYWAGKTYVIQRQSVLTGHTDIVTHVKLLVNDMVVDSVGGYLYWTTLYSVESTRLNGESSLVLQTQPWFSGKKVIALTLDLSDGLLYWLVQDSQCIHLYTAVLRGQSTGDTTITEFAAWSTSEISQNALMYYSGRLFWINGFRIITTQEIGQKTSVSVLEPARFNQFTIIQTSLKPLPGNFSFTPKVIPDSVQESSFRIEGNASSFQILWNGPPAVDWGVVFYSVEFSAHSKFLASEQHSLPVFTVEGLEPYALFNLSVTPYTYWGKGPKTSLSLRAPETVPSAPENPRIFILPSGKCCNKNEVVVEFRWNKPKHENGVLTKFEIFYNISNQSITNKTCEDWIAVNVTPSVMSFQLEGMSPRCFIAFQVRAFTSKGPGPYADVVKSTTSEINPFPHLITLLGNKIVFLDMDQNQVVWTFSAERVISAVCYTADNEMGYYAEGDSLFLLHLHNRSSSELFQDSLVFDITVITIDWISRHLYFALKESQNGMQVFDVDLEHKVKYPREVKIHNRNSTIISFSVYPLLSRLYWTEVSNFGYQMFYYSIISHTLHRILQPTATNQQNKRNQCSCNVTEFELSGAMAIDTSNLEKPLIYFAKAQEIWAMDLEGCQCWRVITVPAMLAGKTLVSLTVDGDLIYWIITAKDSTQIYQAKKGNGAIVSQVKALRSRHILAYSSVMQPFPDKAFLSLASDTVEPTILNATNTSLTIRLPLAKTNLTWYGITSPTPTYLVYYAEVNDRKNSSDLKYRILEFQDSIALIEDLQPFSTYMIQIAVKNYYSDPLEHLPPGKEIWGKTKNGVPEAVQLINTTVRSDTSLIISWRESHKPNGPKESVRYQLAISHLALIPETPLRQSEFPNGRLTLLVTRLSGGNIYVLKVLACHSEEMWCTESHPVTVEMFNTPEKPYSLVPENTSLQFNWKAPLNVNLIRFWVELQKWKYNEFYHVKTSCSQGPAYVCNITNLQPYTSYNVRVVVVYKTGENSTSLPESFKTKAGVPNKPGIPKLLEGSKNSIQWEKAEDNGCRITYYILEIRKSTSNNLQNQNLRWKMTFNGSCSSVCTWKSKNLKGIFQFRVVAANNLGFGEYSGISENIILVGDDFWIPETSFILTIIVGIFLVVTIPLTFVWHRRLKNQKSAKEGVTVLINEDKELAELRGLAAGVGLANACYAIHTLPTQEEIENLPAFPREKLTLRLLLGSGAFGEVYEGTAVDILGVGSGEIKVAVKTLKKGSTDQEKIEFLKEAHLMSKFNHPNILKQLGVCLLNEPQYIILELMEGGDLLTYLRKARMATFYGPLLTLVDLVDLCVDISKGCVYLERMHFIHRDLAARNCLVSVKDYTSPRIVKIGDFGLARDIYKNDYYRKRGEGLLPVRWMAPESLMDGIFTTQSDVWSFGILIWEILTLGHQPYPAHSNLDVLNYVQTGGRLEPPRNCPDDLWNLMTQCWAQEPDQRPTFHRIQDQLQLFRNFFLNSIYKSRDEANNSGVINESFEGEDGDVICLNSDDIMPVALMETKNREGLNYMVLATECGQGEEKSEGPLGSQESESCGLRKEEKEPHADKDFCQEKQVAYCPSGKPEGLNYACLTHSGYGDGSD

[4] = target: T4, JNK1 (Homo sapiens, UniProt P45983)
T4 construct: purchased Carna Biosciences
T4 sequence (P45983 whole entry): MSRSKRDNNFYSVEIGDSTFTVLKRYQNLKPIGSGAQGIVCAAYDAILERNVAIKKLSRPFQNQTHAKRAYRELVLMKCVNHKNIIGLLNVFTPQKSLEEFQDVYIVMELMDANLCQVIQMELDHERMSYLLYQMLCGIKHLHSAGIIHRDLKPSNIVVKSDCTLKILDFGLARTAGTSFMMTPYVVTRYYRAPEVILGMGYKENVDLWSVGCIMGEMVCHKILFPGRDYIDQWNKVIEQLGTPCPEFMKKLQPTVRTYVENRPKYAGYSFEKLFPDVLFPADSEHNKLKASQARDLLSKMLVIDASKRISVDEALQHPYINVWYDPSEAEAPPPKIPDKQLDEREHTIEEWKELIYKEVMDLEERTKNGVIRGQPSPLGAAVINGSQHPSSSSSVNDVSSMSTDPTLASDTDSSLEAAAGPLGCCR

[5] = target: T5, LOK (Homo sapiens, UniProt O94804)
T5 construct: purchased Carna Biosciences

[6] = target: T6, MST1 (Homo sapiens, UniProt Q13043)
T6 construct: purchased Carna Biosciences
T6 sequence (Q13043 1-487): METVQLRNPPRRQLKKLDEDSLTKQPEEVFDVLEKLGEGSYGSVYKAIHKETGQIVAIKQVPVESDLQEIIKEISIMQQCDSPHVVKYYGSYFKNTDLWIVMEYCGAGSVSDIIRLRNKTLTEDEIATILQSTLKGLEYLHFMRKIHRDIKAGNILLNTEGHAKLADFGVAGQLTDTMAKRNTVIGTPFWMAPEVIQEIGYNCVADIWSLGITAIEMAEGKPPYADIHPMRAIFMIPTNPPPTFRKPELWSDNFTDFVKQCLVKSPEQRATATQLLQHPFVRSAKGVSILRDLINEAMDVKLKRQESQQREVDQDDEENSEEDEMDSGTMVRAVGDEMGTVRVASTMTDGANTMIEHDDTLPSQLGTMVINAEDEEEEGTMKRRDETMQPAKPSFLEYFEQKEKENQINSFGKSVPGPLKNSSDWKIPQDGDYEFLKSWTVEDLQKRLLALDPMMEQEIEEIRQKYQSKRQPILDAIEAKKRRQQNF

[7] = target: T7, MST4 (Homo sapiens, UniProt Q9P289)
T7 construct: purchased Carna Biosciences
T7 sequence (Q9P289 whole entry): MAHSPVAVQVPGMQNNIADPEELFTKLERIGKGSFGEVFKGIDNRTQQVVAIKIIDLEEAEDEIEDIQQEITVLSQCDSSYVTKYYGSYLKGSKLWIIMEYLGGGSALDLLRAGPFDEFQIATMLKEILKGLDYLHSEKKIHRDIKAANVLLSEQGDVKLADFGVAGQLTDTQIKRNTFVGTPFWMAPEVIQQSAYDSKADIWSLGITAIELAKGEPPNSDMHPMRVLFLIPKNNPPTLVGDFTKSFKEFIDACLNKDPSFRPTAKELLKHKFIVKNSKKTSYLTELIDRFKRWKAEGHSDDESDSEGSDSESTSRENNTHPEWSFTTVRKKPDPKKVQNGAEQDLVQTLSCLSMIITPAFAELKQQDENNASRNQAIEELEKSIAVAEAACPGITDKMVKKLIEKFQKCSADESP

[8] = target: T8, NEK7 (Homo sapiens, UniProt Q8TDX7)
T8 construct: purchased Carna Biosciences
T8 sequence (Q8TDX7 whole entry): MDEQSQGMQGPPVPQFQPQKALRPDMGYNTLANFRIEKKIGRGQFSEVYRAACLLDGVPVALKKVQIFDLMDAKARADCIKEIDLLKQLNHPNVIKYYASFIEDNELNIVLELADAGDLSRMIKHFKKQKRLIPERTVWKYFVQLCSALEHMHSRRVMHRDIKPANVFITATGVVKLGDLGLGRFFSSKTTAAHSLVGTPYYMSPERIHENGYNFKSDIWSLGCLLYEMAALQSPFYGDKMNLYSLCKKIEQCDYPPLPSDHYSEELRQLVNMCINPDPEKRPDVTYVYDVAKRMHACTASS

[9] = target: T9, PKD1 (Homo sapiens, UniProt Q15139)
T9 construct: purchased Carna Biosciences
T9 sequence (Q15139 1-912): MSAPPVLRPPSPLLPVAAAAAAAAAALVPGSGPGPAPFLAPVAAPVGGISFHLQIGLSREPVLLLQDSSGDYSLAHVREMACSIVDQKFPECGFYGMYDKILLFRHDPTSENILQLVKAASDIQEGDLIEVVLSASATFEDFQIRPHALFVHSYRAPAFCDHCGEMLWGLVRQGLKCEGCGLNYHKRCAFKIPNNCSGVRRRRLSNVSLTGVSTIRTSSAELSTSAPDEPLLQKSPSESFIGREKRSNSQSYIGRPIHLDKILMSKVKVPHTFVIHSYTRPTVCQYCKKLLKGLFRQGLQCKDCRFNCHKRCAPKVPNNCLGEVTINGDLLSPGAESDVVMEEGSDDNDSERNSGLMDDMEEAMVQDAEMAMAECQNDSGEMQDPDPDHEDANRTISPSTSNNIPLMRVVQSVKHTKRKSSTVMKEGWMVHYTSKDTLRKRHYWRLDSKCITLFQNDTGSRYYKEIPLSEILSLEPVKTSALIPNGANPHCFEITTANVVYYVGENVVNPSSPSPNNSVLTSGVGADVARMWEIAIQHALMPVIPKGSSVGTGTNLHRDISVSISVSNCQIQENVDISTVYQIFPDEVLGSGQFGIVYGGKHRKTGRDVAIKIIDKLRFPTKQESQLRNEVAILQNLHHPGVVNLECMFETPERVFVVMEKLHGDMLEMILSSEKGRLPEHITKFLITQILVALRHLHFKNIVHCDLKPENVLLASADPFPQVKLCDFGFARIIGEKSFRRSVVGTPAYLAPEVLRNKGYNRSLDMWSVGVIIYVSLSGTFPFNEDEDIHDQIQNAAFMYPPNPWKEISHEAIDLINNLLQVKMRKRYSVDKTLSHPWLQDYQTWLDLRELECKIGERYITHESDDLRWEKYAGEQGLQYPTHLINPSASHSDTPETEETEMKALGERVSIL

[10] = target: T10, PKN1 (Homo sapiens, UniProt Q16512)
T10 construct: purchased Carna Biosciences
T10 sequence (Q16512 whole entry): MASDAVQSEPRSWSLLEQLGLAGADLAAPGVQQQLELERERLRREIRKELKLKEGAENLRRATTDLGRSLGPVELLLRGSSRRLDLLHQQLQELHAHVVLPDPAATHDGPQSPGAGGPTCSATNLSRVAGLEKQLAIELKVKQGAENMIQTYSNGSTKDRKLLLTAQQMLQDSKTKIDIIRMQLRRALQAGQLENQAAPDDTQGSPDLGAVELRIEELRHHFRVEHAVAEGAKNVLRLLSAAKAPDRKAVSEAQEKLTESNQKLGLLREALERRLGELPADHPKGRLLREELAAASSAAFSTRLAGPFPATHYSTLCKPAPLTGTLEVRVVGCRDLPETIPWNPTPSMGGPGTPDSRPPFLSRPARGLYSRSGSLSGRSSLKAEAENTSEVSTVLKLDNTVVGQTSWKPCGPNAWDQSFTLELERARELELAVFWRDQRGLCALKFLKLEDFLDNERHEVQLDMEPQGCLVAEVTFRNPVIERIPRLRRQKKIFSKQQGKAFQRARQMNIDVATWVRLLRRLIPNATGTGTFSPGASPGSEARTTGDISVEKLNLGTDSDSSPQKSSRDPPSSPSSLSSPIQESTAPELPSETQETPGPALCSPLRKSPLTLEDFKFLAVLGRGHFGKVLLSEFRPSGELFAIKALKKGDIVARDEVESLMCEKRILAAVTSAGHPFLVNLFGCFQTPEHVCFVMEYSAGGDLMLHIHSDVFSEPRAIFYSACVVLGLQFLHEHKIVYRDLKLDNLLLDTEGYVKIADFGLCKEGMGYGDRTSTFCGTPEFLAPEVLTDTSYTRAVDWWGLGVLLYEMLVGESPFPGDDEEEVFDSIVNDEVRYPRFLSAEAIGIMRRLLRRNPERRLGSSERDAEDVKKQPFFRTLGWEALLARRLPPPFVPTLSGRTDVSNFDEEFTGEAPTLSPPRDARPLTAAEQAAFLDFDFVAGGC

Row | SMILES | Percentage inhibition of kinase enzyme activity [1] [%] | Percentage inhibition of kinase enzyme activity [2] [%] | Percentage inhibition of kinase enzyme activity [3] [%] | Percentage inhibition of kinase enzyme activity [4] [%] | Percentage inhibition of kinase enzyme activity [5] [%] | Percentage inhibition of kinase enzyme activity [6] [%] | Percentage inhibition of kinase enzyme activity [7] [%] | Percentage inhibition of kinase enzyme activity [8] [%] | Percentage inhibition of kinase enzyme activity [9] [%] | Percentage inhibition of kinase enzyme activity [10] [%]
1 | CC#CC(=O)N1CCC[C@H]1c1nc(-c2ccc(C(=O)Nc3ccccn3)cc2)c2c(N)nccn12 [acalabrutinib] | 3.27 | 2.89 | 1.79 | -0.88 | 3.37 | 3.91 | -6.42 | -10.68 | -9.48 | 11.29
2 | C=CC(=O)N1CCC[C@@H](n2nc(-c3ccc(Oc4ccccc4)cc3)c3c(N)ncnc32)C1 [ibrutinib] | 62.77 | -4.53 | 4.82 | -2.33 | 24.15 | 4.14 | 1.46 | 0.69 | 3.22 | 8.58
3 | O=C(c1ccc(Oc2ccccc2)cc1Cl)c1c[nH]c2ncnc(N[C@@H]3CC[C@@H](CO)OC3)c12 [nemtabrutinib] | 99.30 | 78.81 | 60.67 | -3.89 | 83.97 | 96.55 | 57.51 | 3.06 | 7.45 | 5.57
4 | COc1ccc(F)cc1C(=O)NCc1ccc(-c2nn([C@@H](C)C(F)(F)F)c(N)c2C(N)=O)cc1 [pirtobrutinib] | -4.18 | -5.95 | 3.20 | -0.29 | -1.51 | 10.97 | -7.97 | -2.19 | 4.89 | 15.81
5 | C=CC(=O)N1CCC([C@@H]2CCNc3c(C(N)=O)c(-c4ccc(Oc5ccccc5)cc4)nn32)CC1 [zanubrutinib] | 6.34 | -2.78 |  |  |  |  |  |  |  | 
